According to patent publication US20210221784A1, “COMPOUNDS AND COMPOSITIONS FOR THE TREATMENT OF PAIN” (Université de Strasbourg, priority 2018, published 2021):

Legend:
[1] = target: T1, human NPFFR1 (hNPFFR1) receptor (Homo sapiens, UniProt Q9GZQ6); experiment: Human NPFFR1 evaluation using BRET biosensors in HEK-293 T cells; format: cell-based; conditions: hNPFFR1 in HEK-293 T cells, stimulated by EC80 RFRP-3, read-out: IC50 of antagonist activity
T1 construct: expressed in transfected cells; host or cells: HEK-293 T cells, transient co-transfection
T1 sequence (Q9GZQ6 whole entry): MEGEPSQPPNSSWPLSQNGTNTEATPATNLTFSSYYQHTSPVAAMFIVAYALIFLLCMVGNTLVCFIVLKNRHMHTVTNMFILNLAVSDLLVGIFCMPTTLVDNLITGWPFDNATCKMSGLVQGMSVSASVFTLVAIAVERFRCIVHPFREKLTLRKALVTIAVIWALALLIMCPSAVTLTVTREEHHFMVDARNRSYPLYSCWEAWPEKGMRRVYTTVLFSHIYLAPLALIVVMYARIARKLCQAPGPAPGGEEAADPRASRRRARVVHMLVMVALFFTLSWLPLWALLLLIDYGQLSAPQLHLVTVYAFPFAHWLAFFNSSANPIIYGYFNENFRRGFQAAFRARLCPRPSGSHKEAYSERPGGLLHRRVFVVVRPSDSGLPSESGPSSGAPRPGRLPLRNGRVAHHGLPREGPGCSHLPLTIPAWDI
Experimental: Compounds of the present invention were tested successively for their agonist and antagonist activities on human NPFFR1 (hNPFFR1) receptor transiently over-expressed in HEK-293 T cells. Compounds exert agonist activity if, by themselves in absence of neuropeptide RFRP-3 (also named NPVF) they activate hNPFFR1; and they exert antagonist activity if they decrease the action of RFRP-3 on the receptor. The assay used to measure compound activity is based on BRET (Bioluminescence Resonance Energy Transfer) biosensors and is designed to monitor the plasma membrane translocation of protein that interacts with specific Ga subunit. The specific effector (luciferase tagged: BRET donor) recruited at the membrane will be in close proximity to a plasma membrane anchor (GFP tagged: BRET acceptor) to induce a BRET signal (Ramdan et al, 2006, Chapter 5, Current Protocols in Neuroscience).
HEK-293 T cells are maintained in Dulbecco's Modified Eagle's Medium supplemented with 10% Foetal Calf Serum, 1% Penicillin/Streptomycin at 37° C./5% CO2. Cells are co-transfected using polyethylenimine (25 kDa linear) with four DNA plasmids encoding; hNPFFR1, GαoB, a Gi family specific intracellular effector fused to luciferase (BRET donor), a plasma membrane effector fused to GFP (BRET acceptor). After transfection, cells are cultured for 48 h at 37° C./5% CO2.
Receptor activity is detected by changes in BRET signal.
On the day of the assay, cells are detached using trypsin 0.05%, resuspended in assay buffer (1.8 mM CaCl2, 1 mM MgCl2, 2.7 mM KCl, 137 mM NaCl, 0.4 mM NaH2PO4, 5.5 mM D-Glucose, 11.9 mM NaHCO3, 25 mM Hepes) and seeded in 384 well plate at a density of 20,000 cells per well. Then, plates are equilibrated 3.5 hours at 37° C. before adding compounds.
Compounds and luciferase substrate are added to the cells using an automated device (Freedom Evo®, Tecan) and BRET readings are collected on EnVision (PerkinElmer) with specific filters (410 nm BW 80 nm, 515 nm BW 30 nm).
Agonist and antagonist activities of compounds are consecutively evaluated on the same cell plate. Agonist activity is first measured after 10 minutes incubation with compound alone on the cells. Then, cells are stimulated by an EC80 RFRP-3 concentration and luminescence is recorded for additional 10 minutes. EC80 RFRP-3 concentration is the concentration giving 80% of the maximal RFRP-3 response. Agonist or antagonist activities are evaluated in comparison to basal signals evoked by assay buffer or EC80 RFRP-3 alone, respectively.
For IC50 determination, a dose-response test is performed using 20 concentrations (ranging over 6 logs) of each compound. Dose-response curves are fitted using the sigmoidal dose-response (variable slope) analysis in GraphPad Prism software (GraphPad Software) and IC50 of antagonist activity is calculated. Dose-response experiments are performed in duplicate, in two independent experiments.

Row | Compound | melting point [°C] | IC50 [1] [nM]
1 | CCc1nc(N)ccc1-c1ccccc1OC1CCCC1.Cl [Compound 76, 5-[2-(cyclopentoxy)phenyl]-6-ethyl-pyridin-2-amine] | 80 to 93 | < 100
2 | Nc1ccc(-c2ccc(Cl)cc2F)c(N)n1 [Compound 41, 3-(4-Chloro-2-fluoro-phenyl)-pyridine-2,6-diamine] | 134 to 139 | > 1000
3 | Cc1cc(C(F)(F)F)ccc1-c1ccc(N)nc1N [Compound 57, 3-(2-Methyl-4-trifluoromethyl-phenyl)-pyridine-2,6-diamine] | 60 to 65 | > 1000
4 | COc1ccc(-c2ccc(N)nc2N)c(C)c1 [Compound 40, 3-(4-Methoxy-2-methyl-phenyl)-pyridine-2,6-diamine] | 150 to 158 | > 1000
5 | Nc1ccc(-c2ccc(F)nc2)c(N)n1 [Compound 86, 3-(6-fluoro-3-pyridyl)pyridine-2,6-diamine] | 170 to 178 | > 1000
6 | CC(C)Oc1ccc(C(F)(F)F)cc1-c1ccc(N)nc1N [Compound 52, 3-(2-Isopropoxy-5-trifluoromethyl-phenyl)-pyridine-2,6-diamine] | 100 to 103 | > 1000
7 | COc1ncccc1-c1ccc(N)nc1N [Compound 89, 3-(2-methoxy-3-pyridyl)pyridine-2,6-diamine] | 174 to 176 | > 1000
8 | COc1ccccc1-c1ccc(N)nc1C [Compound 26, 5-(2-Methoxy-phenyl)-6-methyl-pyridin-2-ylamine] | 132 to 140 | > 1000
9 | COc1ccccc1-c1c(C)cc(N)nc1C [Compound 27, 5-(2-Methoxy-phenyl)-4,6-dimethyl-pyridin-2-ylamine] | 178 to 181 | > 1000
10 | Cc1nc(F)ccc1-c1ccc(N)nc1N [Compound 85, 3-(6-fluoro-2-methyl-3-pyridyl)pyridine-2,6-diamine] | 186 to 192 | > 1000
11 | CS(=O)(=O)c1ccccc1-c1ccc(N)nc1N.Cl [Compound 63, 3-(2-methylsulfonylphenyl)pyridine-2,6-diamine] | 55 to 65 | > 1000
12 | Cc1cc(Cl)ccc1-c1ccc(N)nc1N [Compound 54, 3-(4-Chloro-2-methyl-phenyl)-pyridine-2,6-diamine] | 80 to 85 | > 1000
13 | CC(C)Oc1ccc(F)cc1-c1ccc(N)nc1N [Compound 50, 3-(5-Fluoro-2-isopropoxy-phenyl)-pyridine-2,6-diamine] | 93 to 97 | 500 to 1000
14 | CC(C)Oc1ccc2ccccc2c1-c1ccc(N)nc1N [Compound 70, 3-(2-isopropoxy-1-naphthyl)pyridine-2,6-diamine] | 40 to 43 | 500 to 1000
15 | Cc1cc(N)ncc1-c1cccc(Cl)c1Cl [Compound 22, 5-(2,3-Dichloro-phenyl)-4-methyl-pyridin-2-ylamine] | 94 to 97 | > 1000
16 | Cc1ccc(-c2ccc(N)nc2N)c(OC(C)C)c1 [Compound 46, 3-(2-Isopropoxy-4-methyl-phenyl)-pyridine-2,6-diamine] | 75 to 80 | > 1000
17 | Cc1ncccc1-c1ccc(N)nc1N [Compound 84, 3-(2-methyl-3-pyridyl)pyridine-2,6-diamine] | 192 to 198 | > 1000
18 | Nc1ccc(-c2ccc(F)cc2Cl)c(N)n1 [Compound 45, 3-(2-Chloro-4-fluoro-phenyl)-pyridine-2,6-diamine] | 150 to 155 | 500 to 1000

Results, then the compound that gave them:

Row | melting point [°C] | IC50 [1] [nM] | Compound
19 | 119 to 126 | < 100 | Cl.Nc1ccc(-c2ccc(F)c3ccccc23)c(N)n1 [Compound 72, 3-(4-fluoro-1-naphthyl)pyridine-2,6-diamine]
20 | 60 to 80 | < 100 | CCc1nc(N)ccc1-c1ccccc1OC1CC1.Cl [Compound 31, 5-[2-(cyclopropoxy)phenyl]-6-ethyl-pyridin-2-amine]
21 | 63 to 67 | 100 to 500 | COc1ccc2ccccc2c1-c1ccc(N)nc1N [Compound 69, 3-(2-methoxy-1-naphthyl)pyridine-2,6-diamine]
22 | 160 to 166 | 500 to 1000 | Cl.Nc1ccc(-c2ccc(O)c3ccccc23)c(N)n1 [Compound 74, 4-(2,6-diamino-3-pyridyl)naphthalen-1-ol]
23 | 135 to 140 | < 100 | Cl.Nc1ccc(-c2ccc(Cl)c3ccccc23)c(N)n1 [Compound 73, 3-(4-chloro-1-naphthyl)pyridine-2,6-diamine]
24 | 90 to 120 | 100 to 500 | CCc1nc(N)ccc1-c1cccc2ccccc12.Cl [Compound 67, 6-ethyl-5-(1-naphthyl)pyridin-2-amine]
25 | 180 to 190 | 100 to 500 | CCc1nc(N)ccc1-c1ccccc1C1CC1.Cl [Compound 30, 5-(2-cyclopropylphenyl)-6-ethyl-pyridin-2-amine]
26 | 78 to 81 | 500 to 1000 | Cc1ccc(OC(C)C)c(-c2ccc(N)nc2N)c1 [Compound 49, 3-(2-Isopropoxy-5-methyl-phenyl)-pyridine-2,6-diamine]
27 | 152 to 158 | < 100 | Nc1ccc(-c2cccc3ccccc23)c(N)n1 [Compound 68, 3-(1-naphthyl)pyridine-2,6-diamine]
28 | > 250 | 100 to 500 | Cl.N#Cc1ccccc1-c1ccc(N)nc1N [Compound 96, 2-(2,6-diamino-3-pyridyl)benzonitrile]
29 | 59 to 63 | 100 to 500 | CC(C)Oc1cc(F)ccc1-c1ccc(N)nc1N [Compound 53, 3-(4-Fluoro-2-isopropoxy-phenyl)-pyridine-2,6-diamine]
30 | 63 to 68 | < 100 | Cl.Nc1ccc(-c2ccccc2OCC2CC2)c(N)n1 [Compound 65, 3-[2-(cyclopropylmethoxy)phenyl]pyridine-2,6-diamine]
31 | 95 to 97 | 100 to 500 | Cc1ccc(Cl)cc1-c1ccc(N)nc1N [Compound 56, 3-(5-Chloro-2-methyl-phenyl)-pyridine-2,6-diamine]
32 | 50 to 60 | < 100 | Cl.Nc1ccc(-c2ccccc2OCc2ccccc2)c(N)n1 [Compound 64, 3-(2-benzyloxyphenyl)pyridine-2,6-diamine]
33 | 127 to 132 | 100 to 500 | Cc1ccc(-c2ccc(N)nc2N)c2ccccc12.Cl [Compound 71, 3-(4-methyl-1-naphthyl)pyridine-2,6-diamine]
34 | 109 to 114 | 100 to 500 | Cc1cccc(-c2ccc(N)nc2N)c1Cl [Compound 58, 3-(2-chloro-3-methyl-phenyl)-pyridine-2,6-diamine]
35 | 73 to 78 | 100 to 500 | CSc1ccccc1-c1ccc(N)nc1N.Cl [Compound 59, 3-(2-Methylsulfanyl-phenyl)-pyridine-2,6-diamine]
36 | 104 to 108 | 100 to 500 | Cc1cccc(C)c1-c1ccc(N)nc1N [Compound 51, 3-(2,6-Dimethyl-phenyl)-pyridine-2,6-diamine]
